The subject of the assay is Mycobacterium tuberculosis. The assay is described as follows: Antitubercular activity against Mycobacterium tuberculosis assessed as growth inhibition […]. The settings on record: read-out: log(1/IC50) (converted). The class given is functional, organism-based.

With `Cc1ccc(C(=O)N2CCN(c3cccc(C(F)(F)F)c3)CC2)cc1C`, the IC50 was 1.86 µM.

Consider `O=C(c1cccc(Cl)c1)N1CCN(c2cccc(Cl)c2)CC1`, for which the IC50 is 6.76 µM. In the case of `Cc1ccc(N2CCN(C(=O)c3ccc(C(C)(C)C)cc3)CC2)cc1Cl` it was 100 µM; in that of `O=C(c1ccccc1F)N1CCN(c2cccc(Cl)c2)CC1`, 13.8 µM; in that of `Cc1ccc(C(=O)N2CCN(c3cccc(Cl)c3)CC2)cc1`, 3.09 µM. The same measure for `CC(C)(C)c1ccc(C(=O)N2CCN(c3cccc(Cl)c3)CC2)cc1`: 100 µM. The same measure for `O=C(c1ccc(Cl)c(Cl)c1)N1CCN(c2cccc(Cl)c2)CC1`: 6.03 µM; for `O=C(c1ccccc1F)N1CCC(Cc2ccccc2)CC1`: 14.1 µM. For the molecule `CC(C)c1ccc(C(=O)N2CCN(c3cccc(Cl)c3)CC2)cc1`, the IC50 is 100 µM. The same measure for `Cc1ccc(C(=O)N2CCN(c3cccc(C(F)(F)F)c3)CC2)cc1`: 6.31 µM; for `O=C(c1ccccc1)N1CCN(c2ccccc2)CC1`: 38.9 µM; for `O=C(c1ccc2[nH]ccc2c1)N1CCN(C(c2ccc(F)cc2)c2ccc(F)cc2)CC1`: 1.05 µM. On to `CC(C)(C)c1ccc(C(=O)N2CCN(c3cccc(C(F)(F)F)c3)CC2)cc1`, for which the IC50 is 100 µM.

For `Cc1cccc(C(=O)N2CCN(c3cccc(Cl)c3)CC2)c1`, the IC50 is 9.33 µM. The same measure for `O=C(c1ccc(Cl)c(Cl)c1)N1CCN(c2ccccc2)CC1`: 17.8 µM; for `O=C(c1ccccc1)N1CCN(C(c2ccc(F)cc2)c2ccc(F)cc2)CC1`: 2.04 µM. On to `Cc1ccc(C(=O)N2CCC(Cc3ccccc3)CC2)cc1`, for which the IC50 was 5.13 µM. For `O=C(c1ccc(F)cc1)N1CCN(c2cccc(Cl)c2)CC1`, the IC50 was 9.77 µM. The same measure for `O=C(c1cccc(Cl)c1)N1CCC(Cc2ccccc2)CC1`: 7.76 µM. The same measure for `Cc1ccc(C(=O)N2CCN(C(c3ccc(F)cc3)c3ccc(F)cc3)CC2)cc1`: 1.91 µM; for `O=C(c1ccccc1)N1CCN(Cc2ccccc2)CC1`: 31.6 µM; for `Cc1cccc(C(=O)N2CCN(c3ccc([N+](=O)[O-])cc3)CC2)c1`: 15.5 µM. In the case of `Cc1ccc(C(=O)N2CCN(c3ccccc3)CC2)cc1` it was 16.6 µM.

The record behind these values is ChEMBL document CHEMBL3045931, “QSAR studies of antituberculosis drug using three-dimensional structure descriptors” (Med Chem Res, 2013).
